This note sets out measurements from PubChem BioAssay AID248 (DTP/NCI, 2004).

For this assay, the system named is L1210 leukemia ip in BDF1 mice, survival T/C. As to the kind of experiment: NCI In Vivo Anticancer Drug Screen. Data for tumor model L1210 Leukemia (intraperitoneal) in B6D2F1 (BDF1) mice. As to conditions: endpoint: mean survival time, higher = longer survival. In a few lines: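 Survival endpoint. Drug-treated group vs vehicle group, expressed as T divided by C. Tumor passaged by transplantation.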

Where [1] appears, read: dose: 100.0 mg/kg/injection, schedule: Q04DX002 (ip), vehicle: Klucel (hydroxypropylcellulose) (HPC).
Setting [2] is: dose: 200.0 mg/kg/injection, schedule: Q04DX002 (ip), vehicle: Klucel (hydroxypropylcellulose) (HPC).
The mark [3] stands for this setting: dose: 400.0 mg/kg/injection, schedule: Q04DX002 (ip), vehicle: Klucel (hydroxypropylcellulose) (HPC).
[4] abbreviates: dose: 25.0 mg/kg/injection, schedule: Q04DX003 (ip), vehicle: Klucel (hydroxypropylcellulose) (HPC).
[5] abbreviates: dose: 50.0 mg/kg/injection, schedule: Q04DX003 (ip), vehicle: Klucel (hydroxypropylcellulose) (HPC).
[6] abbreviates: dose: 100.0 mg/kg/injection, schedule: Q04DX003 (ip), vehicle: Klucel (hydroxypropylcellulose) (HPC).
The mark [7] stands for this setting: dose: 100.0 mg/kg/injection, schedule: Q01DX009 (ip), vehicle: saline with Tween-80.
The mark [8] stands for this setting: dose: 200.0 mg/kg/injection, schedule: Q01DX009 (ip), vehicle: saline with Tween-80.
[9] abbreviates: dose: 400.0 mg/kg/injection, schedule: Q01DX009 (ip), vehicle: saline with Tween-80.
The mark [10] stands for this setting: dose: 100.0 mg/kg/injection, schedule: Q01DX001 (ip), vehicle: carboxymethylcellulose (CMC).
Where [11] appears, read: dose: 200.0 mg/kg/injection, schedule: Q01DX001 (ip), vehicle: carboxymethylcellulose (CMC).

Values joined by “and” are separate entries in the source; they are usually repeats but may differ in a detail not shown here. Equal values may be shown once. Toxic doses and inconclusive results are not listed. Peptide text beside a SMILES is read from it.

On to `NC(N)=NCCCC(N)C(=O)NC(CCC(=O)O)C(=O)O` (stereo not drawn) (H-Arg-Glu-OH; configuration not given here), for which the T/C is 98 % of control (dose: 25.0 mg/kg/injection, schedule: Q04DX002 (ip), vehicle: saline); 121 % of control (dose: 50.0 mg/kg/injection, schedule: Q04DX002 (ip), vehicle: saline); 110 % of control (dose: 100.0 mg/kg/injection, schedule: Q04DX002 (ip), vehicle: saline).
For the compound `CCOC(=O)c1cc([N+](=O)[O-])c(C)s1`, the T/C (dose: 100.0 mg/kg/injection, schedule: Q01DX009 (sc), vehicle: olive oil, sesame oil, peanut oil) was 104 % of control; the T/C (dose: 100.0 mg/kg/injection, schedule: Q04DX003 (sc), vehicle: olive oil, sesame oil, peanut oil) is 101 % of control; the T/C (dose: 200.0 mg/kg/injection, schedule: Q01DX009 (sc), vehicle: olive oil, sesame oil, peanut oil) was 95 % of control; the T/C (dose: 200.0 mg/kg/injection, schedule: Q04DX003 (sc), vehicle: olive oil, sesame oil, peanut oil) was 107 % of control; the T/C (dose: 400.0 mg/kg/injection, schedule: Q01DX009 (sc), vehicle: olive oil, sesame oil, peanut oil) is 90 % of control; the T/C (dose: 400.0 mg/kg/injection, schedule: Q04DX003 (sc), vehicle: olive oil, sesame oil, peanut oil) was 106 % of control.
For `CCCCCCCCCCCCCCCCN1CCN(CCCCCCCCCCCCCCCC)CC1`, the T/C runs as follows: under setting [1], 108 % of control; under setting [2], 101 % of control; under setting [3], 101 % of control.
Take `O=[As](O)(O)Cc1cccc(F)c1`: the T/C by setting is: under setting [4], 96 % of control; under setting [5], 101 % of control; under setting [6], 87 % of control.
As to `Nc1nc(N)c(-c2ccc(Cl)c(Cl)c2)c(CBr)n1`, the T/C is, setting by setting: (dose: 1.56 mg/kg/injection, schedule: Q01DX009 (ip), vehicle: saline with Tween-80) 101 % of control; (dose: 3.13 mg/kg/injection, schedule: Q01DX009 (ip), vehicle: saline with Tween-80) 101 % of control and 92 % of control; (dose: 6.25 mg/kg/injection, schedule: Q01DX009 (ip), vehicle: saline with Tween-80) 102 % of control; (dose: 12.5 mg/kg/injection, schedule: Q01DX009 (ip), vehicle: saline with Tween-80) 99 % of control and 101 % of control; (dose: 12.5 mg/kg/injection, schedule: Q04DX003 (ip), vehicle: Klucel (hydroxypropylcellulose) (HPC)) 90 % of control; under setting [4], 113 % of control. Moreover, the T/C is, setting by setting: under setting [5], 87 % of control; under setting [6], 87 % of control.
For the compound `CCCCCCCCCCCCOc1ccc(C)cc1`, the T/C was 97 % of control under setting [7]; 88 % of control (dose: 100.0 mg/kg/injection, schedule: Q04DX003 (ip), vehicle: saline with Tween-80); 93 % of control under setting [8]; 88 % of control (dose: 200.0 mg/kg/injection, schedule: Q04DX003 (ip), vehicle: saline with Tween-80); 97 % of control under setting [9]; 93 % of control (dose: 400.0 mg/kg/injection, schedule: Q04DX003 (ip), vehicle: saline with Tween-80).
As for `CCCC(=O)OCC1OC(n2cnc3c(=S)nc(N)[nH]c32)C(OC(=O)CCC)C1OC(=O)CCC` (centres undefined), the T/C reads like this: (dose: 1.0 mg/kg/injection, schedule: Q01DX Z (ip), vehicle: carboxymethylcellulose (CMC)) 109 % of control; (dose: 1.5 mg/kg/injection, schedule: Q01DX Z (ip), vehicle: carboxymethylcellulose (CMC)) 117 % of control; (dose: 2.0 mg/kg/injection, schedule: Q01DX Z (ip), vehicle: carboxymethylcellulose (CMC)) 112 % of control; (dose: 2.3 mg/kg/injection, schedule: Q01DX Z (ip), vehicle: carboxymethylcellulose (CMC)) 124 % of control; (dose: 3.0 mg/kg/injection, schedule: Q01DX Z (ip), vehicle: carboxymethylcellulose (CMC)) 117 % of control; (dose: 5.0 mg/kg/injection, schedule: Q01DX Z (ip), vehicle: carboxymethylcellulose (CMC)) 154 % of control. Moreover, the T/C by setting is: (dose: 9.7 mg/kg/injection, schedule: Q01DX Z (oral), vehicle: carboxymethylcellulose (CMC)) 106 % of control; (dose: 17.0 mg/kg/injection, schedule: Q01DX Z (ip), vehicle: carboxymethylcellulose (CMC)) 157 % of control and 159 % of control; (dose: 25.0 mg/kg/injection, schedule: Q01DX Z (ip), vehicle: carboxymethylcellulose (CMC)) 152 % of control; (dose: 27.0 mg/kg/injection, schedule: Q01DX Z (oral), vehicle: carboxymethylcellulose (CMC)) 115 % of control; (dose: 37.0 mg/kg/injection, schedule: Q01DX Z (ip), vehicle: carboxymethylcellulose (CMC)) 112 % of control and 118 % of control; (dose: 125.0 mg/kg/injection, schedule: Q01DX Z (oral), vehicle: carboxymethylcellulose (CMC)) 119 % of control.
For `CC(C)NC(=O)c1ccc(/C=N/N(C)C)cc1`, the T/C is, setting by setting: under setting [4], 104 % of control; under setting [5], 106 % of control; under setting [6], 95 % of control; (dose: 200.0 mg/kg/injection, schedule: Q04DX003 (ip), vehicle: Klucel (hydroxypropylcellulose) (HPC)) 101 % of control.
Regarding `O=C(Oc1ccccc1)c1cc(Br)ccc1O`, the T/C is, setting by setting: under setting [10], 97 % of control; under setting [11], 95 % of control; (dose: 400.0 mg/kg/injection, schedule: Q01DX001 (ip), vehicle: carboxymethylcellulose (CMC)) 100 % of control.
Regarding `CC/C(=N/Nc1ccc([N+](=O)[O-])cc1[N+](=O)[O-])c1cccs1`, the T/C reads like this: under setting [10], 100 % of control; under setting [11], 97 % of control.
For `Cc1cc(=O)c2c(=O)[nH][nH]c2[nH]1`, the T/C is 95 % of control (dose: 100.0 mg/kg/injection, schedule: Q04DX003 (ip), vehicle: saline); 105 % of control (dose: 200.0 mg/kg/injection, schedule: Q04DX003 (ip), vehicle: saline); 94 % of control (dose: 400.0 mg/kg/injection, schedule: Q04DX003 (ip), vehicle: saline).
As to `COc1ccc(OCC(C)=O)cc1`, the T/C under setting [7] was 97 % of control, the T/C under setting [8] was 100 % of control and the T/C under setting [9] was 100 % of control.
`N#Cc1nc(C#N)c(C#N)nc1C#N`: the T/C (dose: 6.25 mg/kg/injection, schedule: Q01DX009 (ip), vehicle: Klucel (hydroxypropylcellulose) (HPC)) is 105 % of control; the T/C (dose: 12.5 mg/kg/injection, schedule: Q01DX009 (ip), vehicle: Klucel (hydroxypropylcellulose) (HPC)) is 100 % of control; the T/C (dose: 25.0 mg/kg/injection, schedule: Q01DX009 (ip), vehicle: Klucel (hydroxypropylcellulose) (HPC)) was 94 % of control; the T/C (dose: 50.0 mg/kg/injection, schedule: Q01DX009 (ip), vehicle: Klucel (hydroxypropylcellulose) (HPC)) is 97 % of control.
For the compound `Cc1ccc(NC(=O)OCCSc2ccc(Cl)cc2)c([N+](=O)[O-])c1`, the T/C was 99 % of control under setting [1], 99 % of control under setting [2] and 89 % of control under setting [3].
As for `COc1cccc(NC(=S)NC2CC(C)CC(C)(C)C2)c1` (centres undefined), the T/C (dose: 100.0 mg/kg/injection, schedule: Q04DX002 (ip), vehicle: gum acacia) is 95 % of control; the T/C (dose: 200.0 mg/kg/injection, schedule: Q04DX002 (ip), vehicle: gum acacia) was 98 % of control; the T/C (dose: 400.0 mg/kg/injection, schedule: Q04DX002 (ip), vehicle: gum acacia) is 95 % of control.
In the case of `c1ccc([C@H]2CN3CCSC3=N2)cc1`, the T/C (dose: 0.15 mg/kg/injection, schedule: Q01DX009 (ip), vehicle: saline) was 94 % of control; the T/C (dose: 0.31 mg/kg/injection, schedule: Q01DX009 (ip), vehicle: saline) was 91 % of control; the T/C (dose: 0.63 mg/kg/injection, schedule: Q01DX009 (ip), vehicle: saline) was 105 % of control; the T/C (dose: 1.25 mg/kg/injection, schedule: Q01DX009 (ip), vehicle: saline) is 96 % of control; the T/C (dose: 2.5 mg/kg/injection, schedule: Q01DX009 (ip), vehicle: saline) is 98 % of control; the T/C (dose: 5.0 mg/kg/injection, schedule: Q01DX009 (ip), vehicle: saline) was 109 % of control. The T/C by setting is: (dose: 10.0 mg/kg/injection, schedule: Q01DX009 (ip), vehicle: saline) 93 % of control; (dose: 20.0 mg/kg/injection, schedule: Q01DX009 (ip), vehicle: saline) 94 % of control.
